“Also recorded” adds a separate entry of the source.
Legend:
TbPFK [1] = biological target: T1, TbPFK (Trypanosoma brucei brucei, UniProt O15648); experiment: Surface plasmon resonance (SPR); type: binding
T1 construct: made in house; host or cells: Escherichia coli C41 (pET28a, codon optimised gene)
T1 sequence (O15648 1-487): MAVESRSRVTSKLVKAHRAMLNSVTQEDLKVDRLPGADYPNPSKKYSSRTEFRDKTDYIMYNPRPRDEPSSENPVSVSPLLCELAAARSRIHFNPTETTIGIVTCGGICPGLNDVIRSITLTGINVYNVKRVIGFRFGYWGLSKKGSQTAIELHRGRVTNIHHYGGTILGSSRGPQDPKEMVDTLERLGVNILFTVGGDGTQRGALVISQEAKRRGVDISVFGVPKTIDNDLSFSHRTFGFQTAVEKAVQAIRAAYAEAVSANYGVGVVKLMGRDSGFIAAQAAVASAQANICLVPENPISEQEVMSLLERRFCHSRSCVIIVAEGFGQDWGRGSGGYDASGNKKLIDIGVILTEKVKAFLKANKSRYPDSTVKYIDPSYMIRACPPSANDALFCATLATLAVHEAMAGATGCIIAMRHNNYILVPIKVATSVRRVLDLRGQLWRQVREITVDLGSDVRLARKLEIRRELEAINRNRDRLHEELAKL
Procedure: SPR measurements were performed using a BIAcore T200 instrument (GE Healthcare). Active N-terminally His6-tagged TbPFK surfaces were generated using a His-tag capture and coupling onto Ni^2+‐nitrilotriacetic acid sensor chips. Following Ni^2+ priming (30 s injection of 500 μM NiCl2 at 5 μl min^−1), dextran surface carboxylate groups were minimally activated by an injection of 0.2 M EDC; 50 mM NHS at 5 μl min^−1 for 240 s. TbPFK (at concentrations between 10 and 400 nM), in 10 mM NaH2PO4, pH 7.5; 150 mM NaCl; 50 μM EDTA; 0.05% surfactant p20, was captured via the hexa-His-tag and simultaneously covalently stabilised to between 1500 RU and 3100 RU, by varying the contact time. Immediately following the capture/stabilisation a single 15 s injection of 350 mM EDTA and 50 mM imidazole in 10 mM NaH2PO4, pH 7.5; 150 mM NaCl; 50 mM EDTA; 0.05% surfactant p20, at 30 μl min^−1, was used to remove non-covalently bound protein, followed by a 180 s injection of 1 M H2N(CH2)2OH, pH 8.5 at 5 μl min^−1.
Active N-terminally His6-tagged TbPFK surfaces were generated using a His-tag capture and coupling method described previously (2). The surface density on the SPR chip = 1500 RU. A 1:1 binding model has been fitted to each sensorgram trace (black). All measurements were at 25 °C. […] Source data are provided as a Source Data file.

TbPFK [2] = biological target: T1, TbPFK; experiment: PYK/LDH linked enzyme assay to determine inhibitor mode of action; type: biochemical
Procedure: TbPFK inhibition was studied using an enzyme assay, in which production of ADP by TbPFK was coupled to the reactions of pyruvate kinase and lactate dehydrogenase: the conversion of pyruvate to lactate and NADH to NAD^+, is monitored by reduction of UV absorbance at 340 nm.
Parasite enzyme kinetic data were measured using N-terminally His6-tagged TbPFK expressed in Escherichia coli C41 cells, using a codon optimised gene inserted in a pET28a vector (Supplementary Methods 1). Recombinant human PFKs were expressed in PFK-deficient Saccharomyces cerevisiae. PFK enzyme inhibition was measured using an ADP-Glo^TM assay (Promega) in a 96-well plate format (Supplementary Methods 2.1), using a Spectramax© M5 Multimode Plate Reader to measure luminescence values which were converted to ADP concentrations. IC50 values were determined using a sigmoidal curve fitting algorithm in Kaleidagraph 4 (Supplementary Fig. 1). Mode of action studies were carried out using a linked enzyme assay coupling the forward reaction of TbPFK to the M1 isoform of human pyruvate kinase followed by lactate dehydrogenase. The change in UV absorbance at 340 nm resulting from the conversion of NADH to NAD^+ was measured at 25 °C in ‘kinetic mode’ on a Spectramax© M5 Multimode plate reader. […] An alternative linked enzyme assay was developed to control for the potential inhibitory activity of ATP on human PFK (Supplementary Methods 2.3).
The mechanism of TbPFK inhibition was studied using a coupled enzyme assay in which production of ADP by TbPFK was coupled to the reaction of human M1 isoform pyruvate kinase (hPYK), which converts ADP and phosphoenolpyruvate (PEP) to ATP and pyruvate. The reaction is further coupled to lactate dehydrogenase (LDH), which converts pyruvate and NADH to lactate and NAD^+, respectively. NADH conversion was monitored by measuring changes in NADH absorbance.
A 2.5x ‘assay mix’ was made containing 4.8 mM PEP, 1.2 mM NADH , 20 U/ml PYK, 33 U/ml LDH, 0 to 3mM ATP in assay buffer (10 mM MgCl2, 100 mM KCl, 50 mM TEA, 10% glycerol, 0.005% Tween-20, pH 7.4). For measuring activity 40 µl of assay mix was plated in a clear, non-binding 96 well plate (Greiner Bio-One cat. no. 655901) with 4-10 µl of the PFK sample (typically a 0.1 mg/ml stock) to be tested and 40 – 46 µl of assay buffer. The reaction was started upon addition of 10 µl of up to 6 mM F6P (0.6 mM final concentration). Absorbance at 340 nm was read at 20 second intervals for 10 minutes at 25 °C in ‘kinetic mode’ on a Spectramax© M5 Multimode plate reader. The gradient of the linear section of raw plots of NADH absorbance over time were used to obtain initial velocities.

## CN(C)CCn1ccc2c(ccn2Cc2ccc(Cl)c(Cl)c2)c1=O [CTCB-405, 1-[(3,4-Dichlorophenyl)methyl]-5-[2-(dimethylamino)ethyl] pyrrolo[3,2-c]pyridin-4-one]
TbPFK [1]
  koff: 0.079 s⁻¹
  kon: 960000 M⁻¹ s⁻¹
TbPFK [1]; 25 °C
  Kd: 82 nM
TbPFK [2]
  mode of inhibition with respect to ATP and F6P: not competitive with either ATP or F6P; also recorded: not competitive with either substrate
TbPFK [2]; CTCB-405 at 0.5 x IC50
  Vmax, Michaelis Menten best fit versus ATP: 36.5 µmol/min/mg
  Vmax, Michaelis Menten best fit versus F6P: 38.7 µmol/min/mg
TbPFK [2]; CTCB-405 at 1x IC50
  Vmax, Michaelis Menten best fit versus ATP: 33.8 µmol/min/mg
  Vmax, Michaelis Menten best fit versus F6P: 33.6 µmol/min/mg
TbPFK [2]; CTCB-405 at 2 x IC50
  Vmax, Michaelis Menten best fit versus ATP: 26.6 µmol/min/mg
  Vmax, Michaelis Menten best fit versus F6P: 34.0 µmol/min/mg
